Test results reported in PubChem BioAssay (NCI).
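Where inhibition never reached the appropriate level, the endpoint shown equals the highest concentration tested. Otherwise, values were interpolated linearly from a five-concentration, 48-hour dose response in 96-well plates. TGI: concentration producing complete growth inhibition.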

Columns and labels:
Assay in all cases: NCI tumour cell line growth inhibition, 48 h
SK-OV-3 ovarian = test system: SK-OV-3 ovarian
CCRF-CEM leukemia = test system: CCRF-CEM leukemia
OVCAR-8 ovarian = test system: OVCAR-8 ovarian
IGROV1 ovarian = test system: IGROV1 ovarian
A549 NSCLC = test system: A549 NSCLC
RPMI-8226 leukemia = test system: RPMI-8226 leukemia
PC-3 prostate = test system: PC-3 prostate
MOLT-4 leukemia = test system: MOLT-4 leukemia
HOP-62 NSCLC = test system: HOP-62 NSCLC
A498 renal = test system: A498 renal
UO-31 renal = test system: UO-31 renal
DU-145 prostate = test system: DU-145 prostate
SK-MEL-28 melanoma = test system: SK-MEL-28 melanoma
SR leukemia = test system: SR leukemia
NCI-H522 lung = test system: NCI-H522 lung
SN12C renal = test system: SN12C renal
LOX IMVI melanoma = test system: LOX IMVI melanoma
SF-268 CNS = test system: SF-268 CNS
NCI/ADR-RES ovarian = test system: NCI/ADR-RES ovarian
MDA-MB-231 breast = test system: MDA-MB-231 breast
MDA-N = test system: MDA-N
HCT-15 colon = test system: HCT-15 colon
SK-MEL-2 melanoma = test system: SK-MEL-2 melanoma
MCF7 breast = test system: MCF7 breast
T-47D breast = test system: T-47D breast
K-562 leukemia = test system: K-562 leukemia
HCC-2998 colon = test system: HCC-2998 colon
OVCAR-3 ovarian = test system: OVCAR-3 ovarian
NCI-H23 lung = test system: NCI-H23 lung
HCT-116 colon = test system: HCT-116 colon
U251 CNS = test system: U251 CNS
BT-549 breast = test system: BT-549 breast
SNB-19 CNS = test system: SNB-19 CNS
RXF 393 renal = test system: RXF 393 renal
EKVX NSCLC = test system: EKVX NSCLC
OVCAR-5 ovarian = test system: OVCAR-5 ovarian
M14 melanoma = test system: M14 melanoma
OVCAR-4 ovarian = test system: OVCAR-4 ovarian
ACHN renal = test system: ACHN renal
CAKI-1 renal = test system: CAKI-1 renal
SK-MEL-5 melanoma = test system: SK-MEL-5 melanoma
HT29 colon = test system: HT29 colon
COLO 205 colon = test system: COLO 205 colon
MDA-MB-435 = test system: MDA-MB-435
SF-295 CNS = test system: SF-295 CNS
NCI-H460 lung = test system: NCI-H460 lung
SNB-75 CNS = test system: SNB-75 CNS
SW-620 colon = test system: SW-620 colon
UACC-62 melanoma = test system: UACC-62 melanoma
786-0 renal = test system: 786-0 renal
MALME-3M melanoma = test system: MALME-3M melanoma
HS 578T breast = test system: HS 578T breast
HOP-92 NSCLC = test system: HOP-92 NSCLC
HL-60(TB) leukemia = test system: HL-60(TB) leukemia
UACC-257 melanoma = test system: UACC-257 melanoma
SF-539 CNS = test system: SF-539 CNS
TK-10 renal = test system: TK-10 renal
KM12 colon = test system: KM12 colon

Question: Which results are given for `N#C[C@@H](c1ccccn1)c1ncccc1[N+](=O)[O-]`?
Answer: TGI (SK-OV-3 ovarian): > 100 µM; TGI (CCRF-CEM leukemia): > 100 µM; TGI (OVCAR-8 ovarian): > 100 µM; TGI (IGROV1 ovarian): > 100 µM; TGI (A549 NSCLC): > 100 µM; TGI (RPMI-8226 leukemia): > 100 µM; TGI (PC-3 prostate): > 100 µM; TGI (MOLT-4 leukemia): > 100 µM; TGI (HOP-62 NSCLC): > 100 µM; TGI (A498 renal): > 100 µM; TGI (UO-31 renal): > 100 µM; TGI (DU-145 prostate): > 100 µM; TGI (SK-MEL-28 melanoma): > 100 µM; TGI (SR leukemia): > 100 µM; TGI (NCI-H522 lung): > 100 µM; TGI (SN12C renal): > 100 µM; TGI (LOX IMVI melanoma): > 100 µM; TGI (SF-268 CNS): > 100 µM; TGI (NCI/ADR-RES ovarian): > 100 µM; TGI (MDA-MB-231 breast): > 100 µM; TGI (MDA-N): > 100 µM; TGI (HCT-15 colon): > 100 µM; TGI (SK-MEL-2 melanoma): > 100 µM; TGI (MCF7 breast): > 100 µM; TGI (T-47D breast): > 100 µM; TGI (K-562 leukemia): > 100 µM; TGI (HCC-2998 colon): > 100 µM; TGI (OVCAR-3 ovarian): > 100 µM; TGI (NCI-H23 lung): > 100 µM; TGI (HCT-116 colon): > 100 µM; TGI (U251 CNS): > 100 µM; TGI (BT-549 breast): > 100 µM; TGI (SNB-19 CNS): > 100 µM; TGI (RXF 393 renal): > 100 µM; TGI (EKVX NSCLC): > 100 µM; TGI (OVCAR-5 ovarian): > 100 µM; TGI (M14 melanoma): > 100 µM; TGI (OVCAR-4 ovarian): > 100 µM; TGI (ACHN renal): > 100 µM; TGI (CAKI-1 renal): > 100 µM; TGI (SK-MEL-5 melanoma): > 100 µM; TGI (HT29 colon): > 100 µM; TGI (COLO 205 colon): > 100 µM; TGI (MDA-MB-435): > 100 µM; TGI (SF-295 CNS): > 100 µM; TGI (NCI-H460 lung): > 100 µM; TGI (SNB-75 CNS): > 100 µM; TGI (SW-620 colon): > 100 µM; TGI (UACC-62 melanoma): > 100 µM; TGI (786-0 renal): > 100 µM; TGI (MALME-3M melanoma): > 100 µM; TGI (HS 578T breast): > 100 µM

Question: What does the source list for `Cc1cc2nc(C=C(C(F)(F)F)C(F)(F)F)oc2cc1C`?
Answer: TGI (SK-OV-3 ovarian): > 10 µM; TGI (CCRF-CEM leukemia): 6.74 µM; TGI (OVCAR-8 ovarian): 6.68 µM; TGI (IGROV1 ovarian): 8.08 µM; TGI (A549 NSCLC): > 10 µM; TGI (RPMI-8226 leukemia): 5.62 µM; TGI (PC-3 prostate): 5.08 µM; TGI (MOLT-4 leukemia): 5.66 µM; TGI (HOP-62 NSCLC): 9.72 µM; TGI (A498 renal): > 10 µM; TGI (UO-31 renal): > 10 µM; TGI (HOP-92 NSCLC): > 10 µM; TGI (DU-145 prostate): > 10 µM; TGI (SK-MEL-28 melanoma): > 10 µM; TGI (SR leukemia): > 10 µM; TGI (NCI-H522 lung): 6.35 µM; TGI (SN12C renal): 5.1 µM; TGI (LOX IMVI melanoma): 3.96 µM; TGI (SF-268 CNS): 9 µM; TGI (HL-60(TB) leukemia): 5.03 µM; TGI (NCI/ADR-RES ovarian): 5.93 µM; TGI (MDA-MB-231 breast): 5.42 µM; TGI (MDA-N): > 10 µM; TGI (HCT-15 colon): 9.62 µM; TGI (SK-MEL-2 melanoma): > 10 µM; TGI (MCF7 breast): > 10 µM; TGI (T-47D breast): 8.53 µM; TGI (UACC-257 melanoma): > 10 µM; TGI (SF-539 CNS): 6.43 µM; TGI (K-562 leukemia): 5.1 µM; TGI (TK-10 renal): 5.16 µM; TGI (HCC-2998 colon): 6.9 µM; TGI (OVCAR-3 ovarian): 4.35 µM; TGI (NCI-H23 lung): 4.97 µM; TGI (HCT-116 colon): 2.72 µM; TGI (U251 CNS): > 10 µM; TGI (BT-549 breast): 6.13 µM; TGI (SNB-19 CNS): > 10 µM; TGI (RXF 393 renal): 4.92 µM; TGI (EKVX NSCLC): 8.05 µM; TGI (OVCAR-5 ovarian): 7.03 µM; TGI (M14 melanoma): 5.03 µM; TGI (OVCAR-4 ovarian): 7.78 µM; TGI (ACHN renal): > 10 µM; TGI (CAKI-1 renal): 7.23 µM; TGI (SK-MEL-5 melanoma): > 10 µM; TGI (HT29 colon): 7.76 µM; TGI (COLO 205 colon): 0.392 µM; TGI (MDA-MB-435): 4.21 µM; TGI (SF-295 CNS): > 10 µM; TGI (NCI-H460 lung): > 10 µM; TGI (SNB-75 CNS): > 10 µM; TGI (SW-620 colon): 3.42 µM; TGI (UACC-62 melanoma): > 10 µM; TGI (786-0 renal): 3.38 µM; TGI (MALME-3M melanoma): 3.76 µM; TGI (KM12 colon): > 10 µM; TGI (HS 578T breast): 8.84 µM
